One compound from publication PMC8344761 (Journal of Enzyme Inhibition and Medicinal Chemistry, 2021) can be followed below.

One experiment deals with B-Raf (Homo sapiens, UniProt P15056). The experiment is described as follows: Raf kinase assay (Kinase HotSpot, Reaction Biology Corp.). Format: biochemical.
For a further experiment, the system named is HepG2. As to the kind of experiment: Cell proliferation assay (MTT). The format is cell-based. The following applies: Homo sapiens, 48 h, mean ± SEM of three independent experiments, read-out: Cancer cell proliferation IC50 HepG2. Here is the method:
(§1) Hepatocellular carcinoma cell lines (HepG2, Huh7), human pancreatic ductal epithelial cell line (H6c7), and normal human colon cell line (CCD841) were obtained from the American Type Culture Collection (ATCC) (Manassas, VA, USA). Cells were cultured in DMEM/High Glucose media (Hep3B, Huh7, CCD841) or MEM/EBSS media (HepG2) containing 10% FBS, 100 IU/ml of penicillin and 100 µg/ml of streptomycin. H6c7 cells were cultured in keratinocyte serum free media supplemented with epidermal growth factor and bovine pituitary extract. Cells were maintained in 5% CO2 humidified atmosphere at 37 °C.
(§2) Cells were seeded in a 96-well plate and allowed to adhere for 24 h. The cells were serum starved in 1% serum containing medium for 12 h, and then treated with drugs in 10% serum-containing medium. After incubation for 48 h, cell proliferation was measured using MTT assay. Optical density was measured at 540 nm using a Spectrostar Nano microplate reader (BMG LABTECH GmbH, Ortenberg, Germany).

The subject of a further experiment is Hep3B. As to the kind of experiment: Cell proliferation assay (MTT). Format: cell-based. The following applies: Homo sapiens, 48 h, mean ± SEM of three independent experiments, read-out: Cancer cell proliferation IC50 Hep3B. How it is done:
as §1, §2

For another experiment, the system named is Huh7. As to the kind of experiment: Cell proliferation assay (MTT). The format is cell-based. The following applies: Homo sapiens, Huh-7, 48 h, mean ± SEM of three independent experiments, read-out: Cancer cell proliferation IC50 Huh7. Here is the method: as §1, §2

B-Raf, sequence (P15056 whole entry): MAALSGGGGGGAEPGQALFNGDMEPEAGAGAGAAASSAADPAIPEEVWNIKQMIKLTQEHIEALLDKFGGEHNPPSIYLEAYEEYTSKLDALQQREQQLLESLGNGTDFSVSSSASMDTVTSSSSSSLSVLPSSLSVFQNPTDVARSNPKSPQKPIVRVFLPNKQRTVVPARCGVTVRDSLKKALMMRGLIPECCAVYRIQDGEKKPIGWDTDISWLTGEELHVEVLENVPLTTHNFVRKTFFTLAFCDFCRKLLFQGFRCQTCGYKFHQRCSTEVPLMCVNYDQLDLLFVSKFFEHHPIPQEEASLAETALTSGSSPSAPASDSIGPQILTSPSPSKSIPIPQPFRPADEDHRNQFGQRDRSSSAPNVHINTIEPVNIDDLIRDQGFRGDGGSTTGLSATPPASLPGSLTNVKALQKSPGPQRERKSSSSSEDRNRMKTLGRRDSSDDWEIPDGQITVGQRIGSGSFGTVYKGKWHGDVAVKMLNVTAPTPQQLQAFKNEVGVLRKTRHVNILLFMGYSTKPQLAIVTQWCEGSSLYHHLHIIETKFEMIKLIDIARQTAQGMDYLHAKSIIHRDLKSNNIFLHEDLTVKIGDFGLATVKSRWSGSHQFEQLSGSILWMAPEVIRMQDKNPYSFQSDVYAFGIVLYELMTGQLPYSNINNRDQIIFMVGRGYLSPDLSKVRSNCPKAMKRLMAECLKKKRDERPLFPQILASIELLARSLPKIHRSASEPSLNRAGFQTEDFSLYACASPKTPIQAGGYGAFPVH

As for `CNC(=O)c1cc(Oc2c(C)nc(NC(=O)Nc3ccc(Cl)c(C(F)(F)F)c3)c(C)c2C)ccn1` [Compound 4, 4-((6–(3-(4-Chloro-3-(trifluoromethyl)phenyl)ureido)-2,4,5-trimethylpyridin-3-yl)oxy)-N-methylpicolinamide], the inhibition at 1 µM at B-Raf (fixed concentration 1 μM, mean of two independent experiments) is 11.6%. Besides, the “Inhibition (%) B-Raf” value at B-Raf (fixed concentration 1 μM, mean of two independent experiments, 1 µM) is reported as 12%. Besides, the IC50 was found to be 5.86 µM at B-Raf (mean ± SD of two independent experiments, read-out: In vitro Raf kinase inhibition IC50 B-Raf); 6.98 ± 0.08 µM in the experiment with HepG2; 6.23 ± 0.07 µM in the experiment on Hep3B; 5.29 ± 0.11 µM with Huh7.
